# Data published in US20210355104A1, “ADENOSINE RECEPTOR BINDING COMPOUNDS” (Nikang Therapeuticsm Inc., priority 2018, published 2021).
# Where “and” joins values, the source holds several entries; their conditions need not be identical. Equal entries are not always repeated.
# Molecular target: Adenosine A2A receptor (Homo sapiens, UniProt P29274)
# Assay: cAMP assay in 293A cells stably expressing the adenosine A2A receptor (CGS21680 stimulation, HTRF)
# Format: cell-based
# Design: expressed in transfected cells; host or cells: 293A cells (Invitrogen, Cat# R705-07) infected with A2A-expressing lentivirus (custom packaged by Biosettia), puromycin selected
# Conditions: 293A cells stably expressing A2A receptor; 0.1% BSA; 1 uM CGS21680 stimulation; replicate values separated by /; read-out: cAMP (nM) 0.1% BSA, 1 uM CGS
# Description: A 293A cell line (Invitrogen, Cat# R705-07) stably expressing the adenosine A2A receptor was generated in house. Briefly, 293A cells were seeded in 6-well plate and infected with A2A expressing lentivirus (custom packaged by Biosettia) and selected with puromycin (1 ug/ml). Cells survived selection were confirmed for A2A expression by RT-qPCR (RT Reagent: High-Capacity cDNA Reverse Transcription Kit, Applied Biosystems/Thermo Fisher Cat# 4368814, qPCR reagent: SYBR™ Green Master Mix, Applied Biosystems/Thermo Fisher Cat# 4309155). The cells were maintained in DMEM/F12 medium containing 10% FBS, 100 units/ml Penicillin, 100 μg/ml Streptomycin, and 1 μg/ml puromycin at 37° C., 5% CO2. 293A-A2AR cells were harvested on the day of assay and resuspended at 0.6 million cells/ml in DMEM/F12 with 0.1% BSA and 30 U/ml denosine deaminase(Roche, Cat #: 10102121001). Serial dilutions of compounds were prepared in DMEM/F12 with 0.1% BSA to a DMSO concentration of 0.6%. After 4 μl of compound dilutions were added, 4 μl suspended cells were dispensed into low-volume white 384-well plates (Greiner Bio-One). […] The assay plate was then incubated at room temperature for 30 min. 3 μl of d2 conjugated cAMP and 3 μl cryptate conjugated anti-cAMP antibody were then added. D2 conjugated cAMP and cryptate conjugated anti-cAMP antibody (Cisbio, Cat #: 62AM6PEC) were both prepared in cell lysis buffer according to the manufacturer's instruction. After 1 h incubation at room temperature, plates were read in CIARIOstar plate reader (BMG Labtech) using the HTRF detection mode.
# Sequence of Adenosine A2A receptor (P29274 whole entry): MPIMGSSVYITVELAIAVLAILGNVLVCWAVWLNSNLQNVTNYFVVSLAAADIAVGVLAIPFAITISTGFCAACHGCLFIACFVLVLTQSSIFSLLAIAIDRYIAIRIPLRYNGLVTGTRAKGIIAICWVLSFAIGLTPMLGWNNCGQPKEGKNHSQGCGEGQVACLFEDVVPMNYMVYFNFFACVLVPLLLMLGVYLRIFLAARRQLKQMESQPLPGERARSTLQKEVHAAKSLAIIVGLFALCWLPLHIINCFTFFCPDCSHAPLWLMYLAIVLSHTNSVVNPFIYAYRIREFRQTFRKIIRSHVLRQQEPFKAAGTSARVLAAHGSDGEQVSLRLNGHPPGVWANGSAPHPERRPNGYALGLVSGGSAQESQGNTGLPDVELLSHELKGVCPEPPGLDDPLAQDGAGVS
row,Structure (SMILES),IC50
1,"Cc1cc(-c2c(OCc3cc(C(C)(C)O)cc(C(C)(C)O)n3)nc(N)nc2-c2ccc(F)cc2)cc(C(F)F)n1 [Example 421, 2,2′-(6-(((2-amino-5-(2-(difluoromethyl)-6-methylpyridin-4-yl)-6-(4-fluorophenyl)pyrimidin-4-yl)oxy)methyl)pyridine-2,4-diyl)bis(propan-2-ol)]",3420 nM
2,"Cc1cc(-c2c(OCc3nc4cccc(C(C)(C)O)c4n3C)nc(N)nc2-c2ccc(F)cc2)cc(C(F)F)n1 [Example 396, 2-(2-(((2-amino-5-(2-(difluoromethyl)-6-methylpyridin-4-yl)-6-(4-fluorophenyl)pyrimidin-4-yl)oxy)methyl)-1-methyl-1H-benzo[d]imidazol-7-yl)propan-2-ol]",869 nM and 634 nM
3,"Cc1cc(-c2c(COc3cccc(C(C)C)n3)nc(N)nc2-c2ccc(F)cc2)cc(C(F)F)n1 [Example 397, 5-(2-(difluoromethyl)-6-methylpyridin-4-yl)-4-(4-fluorophenyl)-6-(((6-isopropylpyridin-2-yl)oxy)methyl)pyrimidin-2-amine]",9.4 nM and 32 nM and 26 nM and 17 nM

# Same assay, conditions: 293A-A2AR cells, 0.1% BSA, 8 nM CGS; values separated by / are repeat determinations; read-out: cAMP (nM) 0.1% BSA, 8 nM CGS
row,Structure (SMILES),IC50
1,"Cc1cc(-c2c(OCCN(C)c3ncccn3)nc(N)nc2-c2ccc(F)cc2)cc(C(F)F)n1 [Example 145, 5-(2-(difluoromethyl)-6-methylpyridin-4-yl)-4-(4-fluorophenyl)-6-(2-(methyl(pyrimidin-2-yl)amino)ethoxy)pyrimidin-2-amine]",0.9 nM and 1.2 nM

# Same assay, conditions: 293A-A2AR cells, 0.1% BSA, 1 uM CGS; read-out: cAMP (nM) 0.1% BSA, 1 uM CGS
row,Structure (SMILES),IC50
1,"Cc1cc(-c2c(OCc3ncc(C(C)(C)O)n3C)nc(N)nc2-c2ccc(F)cc2)cc(C(F)F)n1 [Example 378, 2-(2-(((2-amino-5-(2-(difluoromethyl)-6-methylpyridin-4-yl)-6-(4-fluorophenyl)pyrimidin-4-yl)oxy)methyl)-1-methyl-1H-imidazol-5-yl)propan-2-ol]",430 nM and 173 nM and 247 nM
2,"Cc1cc(-c2c(OCc3cccc(N4CCC(C)(O)CC4)n3)nc(N)nc2-c2ccc(F)cc2)cc(C(F)F)n1 [Example 259, 1-(6-(((2-amino-5-(2-(difluoromethyl)-6-methylpyridin-4-yl)-6-(4-fluorophenyl)pyrimidin-4-yl)oxy)methyl)pyridin-2-yl)-4-methylpiperidin-4-ol]",> 25000 nM
3,"Cc1cc(-c2c(OCc3cccc(N(C)CCC(=O)O)n3)nc(N)nc2-c2ccc(F)cc2)cc(C(F)F)n1 [Example 328, 3-((6-(((2-amino-5-(2-(difluoromethyl)-6-methylpyridin-4-yl)-6-(4-fluorophenyl)pyrimidin-4-yl)oxy)methyl)pyridin-2-yl)(methyl)amino) propanoic acid]",4510 nM
4,"CCC(C)(C#N)c1cccc(COc2nc(N)nc(-c3ccc(F)cc3)c2-c2cc(C)nc(C(F)F)c2)n1 (stereo not drawn) [Example 360, 2-(6-(((2-amino-5-(2-(difluoromethyl)-6-methylpyridin-4-yl)-6-(4-fluorophenyl)pyrimidin-4-yl)oxy)methyl)pyridin-2-yl)-2-methylbutanenitrile]",50 nM and 51 nM and 115 nM
5,"Cc1cc(-c2c(OCc3cccc(OCCC(C)(C)C(=O)O)n3)nc(N)nc2-c2ccc(F)cc2)cc(C(F)F)n1 [Example 338, 4-((6-(((2-amino-5-(2-(difluoromethyl)-6-methylpyridin-4-yl)-6-(4-fluorophenyl)pyrimidin-4-yl)oxy)methyl)pyridin-2-yl)oxy)-2,2-dimethylbutanoic acid]",2890 nM
6,"Cc1cc(-c2c(OCCc3cccnc3)nc(N)nc2-c2ccc(F)cc2)cc(C(F)F)n1 [Example 299, 5-(2-(difluoromethyl)-6-methylpyridin-4-yl)-4-(4-fluorophenyl)-6-(2-(pyridin-3-yl)ethoxy)pyrimidin-2-amine]",1110 nM
7,"Cc1cc(-c2c(OCc3nnn[nH]3)nc(N)nc2-c2ccc(F)cc2)cc(C(F)F)n1 [Example 269, 4-((1H-tetrazol-5-yl)methoxy)-5-(2-(difluoromethyl)-6-methylpyridin-4-yl)-6-(4-fluorophenyl)pyrimidin-2-amine]",> 25000 nM
8,"Cc1cc(-c2c(OCCc3cccc(C(C)(C)C#N)n3)nc(N)nc2-c2ccc(F)cc2)cc(C(F)F)n1 [Example 362, 2-(6-(2-((2-amino-5-(2-(difluoromethyl)-6-methylpyridin-4-yl)-6-(4-fluorophenyl)pyrimidin-4-yl)oxy)ethyl)pyridin-2-yl)-2-methylpropanenitrile]",85 nM and 158 nM and 45 nM
9,"Cc1cc(-c2c(OCc3cc4ccccc4n3C)nc(N)nc2-c2ccc(F)cc2)cc(C(F)F)n1 [Example 319, 5-(2-(difluoromethyl)-6-methylpyridin-4-yl)-4-(4-fluorophenyl)-6-((1-methyl-1H-indol-2-yl)methoxy)pyrimidin-2-amine]",209 nM and 256 nM
10,"Cc1cc(-c2c(OCc3cc(C(C)(C)C#N)ccn3)nc(N)nc2-c2cccc(C#N)c2C)cc(C(F)F)n1 [Example 261, 3-(2-amino-6-((4-(2-cyanopropan-2-yl)pyridin-2-yl)methoxy)-5-(2-(difluoromethyl)-6-methylpyridin-4-yl)pyrimidin-4-yl)-2-methylbenzonitrile]",2190 nM
11,"CCc1nnn(CC(O)COC)c1COc1nc(N)nc(-c2ccc(F)cc2)c1-c1cc(C)nc(C(F)F)c1 (stereo not drawn) [Example 322, 1-(5-(((2-amino-5-(2-(difluoromethyl)-6-methylpyridin-4-yl)-6-(4-fluorophenyl)pyrimidin-4-yl)oxy)methyl)-4-ethyl-1H-1,2,3-triazol-1-yl)-3-methoxypropan-2-ol]",2470 nM
12,"Cc1cc(-c2c(OCc3cn(C(C)(C)C(=O)O)cn3)nc(N)nc2-c2ccc(F)cc2)cc(C(F)F)n1 [Example 387, 2-(4-(((2-amino-5-(2-(difluoromethyl)-6-methylpyridin-4-yl)-6-(4-fluorophenyl)pyrimidin-4-yl)oxy)methyl)-1H-imidazol-1-yl)-2-methylpropanoic acid]",16300 nM
13,"Cc1cc(-c2c(OCc3nc4ccccc4s3)nc(N)nc2-c2ccc(F)cc2)cc(C(F)F)n1 [Example 347, 4-(benzo[d]thiazol-2-ylmethoxy)-5-(2-(difluoromethyl)-6-methylpyridin-4-yl)-6-(4-fluorophenyl)pyrimidin-2-amine]",634 nM
14,"Cc1cc(-c2c(OCc3nccn3CCCC(=O)O)nc(N)nc2-c2ccc(F)cc2)cc(C(F)F)n1 [Example 386, 4-(2-(((2-amino-5-(2-(difluoromethyl)-6-methylpyridin-4-yl)-6-(4-fluorophenyl)pyrimidin-4-yl)oxy)methyl)-1H-imidazol-1-yl)butanoic acid]",3820 nM
15,"CCc1c(COc2nc(N)nc(-c3ccc(F)cc3)c2-c2cc(C)nc(C(F)F)c2)nnn1C[C@H](O)CO [Example 317, (S)-3-(4-(((2-amino-5-(2-(difluoromethyl)-6-methylpyridin-4-yl)-6-(4-fluorophenyl)pyrimidin-4-yl)oxy)methyl)-5-ethyl-1H-1,2,3-triazol-1-yl)propane-1,2-diol]",1430 nM
16,"Cc1cc(-c2c(OCc3cc4c(s3)CCCC4)nc(N)nc2-c2ccc(F)cc2)cc(C(F)F)n1 [Example 346, 5-(2-(difluoromethyl)-6-methylpyridin-4-yl)-4-(4-fluorophenyl)-6-((4,5,6,7-tetrahydrobenzo[b]thiophen-2-yl)methoxy)pyrimidin-2-amine]",3990 nM
17,"Cc1cc(-c2c(OCc3cccc(C(C)(C)NCC(=O)O)n3)nc(N)nc2-c2ccc(F)cc2)cc(C(F)F)n1 [Example 393, (2-(6-(((2-amino-5-(2-(difluoromethyl)-6-methylpyridin-4-yl)-6-(4-fluorophenyl)pyrimidin-4-yl)oxy)methyl)pyridin-2-yl)propan-2-yl)glycine]",628 nM and 597 nM and 892 nM and 826 nM and 566 nM and 686 nM
18,"CCc1nn(C[C@H](O)CO)nc1COc1nc(N)nc(-c2ccc(F)cc2)c1-c1cc(C)nc(C(F)F)c1 [Example 316, (S)-3-(4-(((2-amino-5-(2-(difluoromethyl)-6-methylpyridin-4-yl)-6-(4-fluorophenyl)pyrimidin-4-yl)oxy)methyl)-5-ethyl-2H-1,2,3-triazol-2-yl)propane-1,2-diol]",1080 nM
19,"Cc1cc(-c2c(OCc3ccn(C)c(=O)c3)nc(N)nc2-c2ccc(F)cc2)cc(C(F)F)n1 [Example 280, 4-(((2-amino-5-(2-(difluoromethyl)-6-methylpyridin-4-yl)-6-(4-fluorophenyl)pyrimidin-4-yl)oxy)methyl)-1-methylpyridin-2(1H)-one]",5800 nM

# Same assay, conditions: 293A-A2AR cells, 0.1% BSA, 1 uM CGS; values separated by / are repeat determinations; read-out: cAMP (nM) 0.1% BSA, 1 uM CGS
row,Structure (SMILES),IC50
1,"Cc1cc(-c2c(OCCN(C)c3ncccn3)nc(N)nc2-c2ccc(F)cc2)cc(C(F)F)n1 [Example 145, 5-(2-(difluoromethyl)-6-methylpyridin-4-yl)-4-(4-fluorophenyl)-6-(2-(methyl(pyrimidin-2-yl)amino)ethoxy)pyrimidin-2-amine]",123 nM
